{
  "source": "patent US6649645B1",
  "about": "(Pharmacia Corporation, priority 1998, dated 2003)",
  "origin": "cited, not measured here",
  "key": {"[1]": {"system": "fibroblast growth factor-induced corneal angiogenesis", "details": "rats; Masferrer et al. 1999"}, "[2]": {"details": "Cynomolgus monkeys, orally for six weeks"}, "[3]": {"details": "mice, Milas et al., Cancer Res. 1990"}},
  "data": [
    {"smiles": "Cc1ccc(-c2cc(C(F)(F)F)nn2-c2ccc(S(N)(=O)=O)cc2)cc1", "note": "[Celecoxib, Benzenesulfonamide, 4-(5-(4-methylphenyl)-3-(trifluoromethyl)-1H-pyrazol-1-yl)-]", "values": [
      {"measurement": "inhibition of fibroblast growth factor-induced corneal angiogenesis", "setting": "[1]", "result": "potent inhibition"}
    ]},
    {"smiles": "COc1ccc2c(c1)c(CC(=O)O)c(C)n2C(=O)c1ccc(Cl)cc1", "note": "[indomethacin]", "values": [
      {"measurement": "tumor cure rate after radiotherapy", "setting": "tumor; [3]", "result": "increases the tumor cure rate"},
      {"measurement": "tumor growth delay after radiotherapy", "setting": "tumor; [3]", "result": "prolongs tumor growth delay"},
      {"measurement": "enhancement factor (tumor curability)", "setting": "tumor; printed as 'radiation alone'", "result": 1.26},
      {"measurement": "enhancement factor (tumor growth delay)", "setting": "tumor; radiation-indomethacin", "result": 1.4}
    ]},
    {"smiles": "CN1C(C(=O)Nc2ccccn2)=C(O)c2sc(Cl)cc2S1(=O)=O", "note": "[lornoxicam]", "values": [
      {"measurement": "Toxicity", "setting": "[2]", "result": "1 to 2", "unit": "mg/kg/day"}
    ]}
  ]
}
